Results on 2 compounds are retold here after patent publication US7071207B2, “Preparation and use of 1,5,6,7-tetrahydropyrrolo[3,2-c]pyridine derivatives for treatment of obesity” (Bayer Pharmaceuticals Corporation, priority 2001, dated 2006).

A short description of data set [1]: Measurement of brain exposure. In kind it is in vivo. The note with it: male, obese Zucker fa/fa, rat, brain homogenate, oral; 10 mg/kg p.o.; brains collected at 2 hours post-dosing; read-out: brain homogenate exposure level. The method, then: Measurement of Brain Exposure
Male obese Zucker fa/fa rats are administered compounds, typically at 10 mg/kg p.o., and then brains are collected at 2 hours post-dosing for determination of brain concentration. Brains are weighed and homogenized with 4 mL 10 mM ammonium acetate buffer (pH 3), and the brain tissue homogenate samples are extracted via protein precipitation with acetonitrile. Samples are vortexed, centrifuged, and analyzed by liquid chromatography utilizing mass spectrometer selective detection (LC/MS/MS) using the heated nebulizer interface. Samples are quantitated using weighted (1/x^2) linear internal standard calibration curve.

Data set [2] relates to obese Zucker fa/fa rats. Kind of data set: Chronic feeding assay (body weight, food and water consumption). The note with it: once per day at 10 mg/kg p.o.; day 6 of treatment. It is filed as in vivo, rat. The text has this:
Evaluation of Compound's Efficacy on the Reduction of Body Weight and Food and Water Consumption in Obese Zucker fa/fa Rats
The purpose of this protocol is to determine the effect of chronic administration of an unknown compound on body weight and food and water consumption in obese Zucker fa/fa rats. Obese Zucker fa/fa rats are frequently used in the determination of compound efficacy in the reduction of body weight. This animal model has been successfully used in the identification and characterization of the efficacy profile of compounds that are or have been used in the management of body weight in obese humans (see, e.g., Al-Barazanji et al., Obes Res. 8:317–323, 2000; Assimacopoulos-Jeannet et al., Am. J. Physiol. 260(2 Pt 2):R278–283, 1991; Dryden et al., Horm. Metab. Res. 31:363–366, 1999; Edwards and Stevens, Pharmacol. Biochem. Behav. 47:865–872, 1994; Grinker et al., Pharmacol. Biochem. Behav. 12:265–275, 1980).
A typical study includes 60–80 male Zucker fa/fa (n=10/treatment group) with an average body weight of approximately 550 g. […]
Animals are orally gavaged (2 mL/kg) daily before the dark phase of the LD/cycle for a pre-determined number of days (typically 6–14 days) with their assigned dose/compound. At this time, body weight, food and water consumption are measured. On the final day, animals are euthanized by CO2 inhalation, and the body weight is measured.

The structures appear in SMILES notation. Where a name gives a salt, the structure may show the parent alone. Bounds are passed on as bounds.

As to `O[C@@H]1CCCC[C@H]1N1CCc2c(cc(-c3ccc(Cl)cc3)n2-c2ccccc2Cl)C1` (relative stereo) [entry 18, trans-2-[1-(2-chlorophenyl)-2-(4-chlorophenyl)-1,4,6,7-tetrahydro-5H-pyrrolo[3,2-c]pyridin-5-yl]cyclohexanol hydrochloride], the concentration at 2 h in data set [1] was over 500 nM. For `COc1ccc(-c2c(C)c3c(n2-c2ccccc2Cl)CCN(N2CCCCC2)C3=O)cc1.Cl` [entry 189, 1-(2-chlorophenyl)-2-(4-methoxyphenyl)-3-methyl-5-(1-piperidinyl)-1,5,6,7-tetrahydro-4H-pyrrolo[3,2-c]pyridin-4-one hydrochloride], in data set [2], the “increase in body weight from baseline” value is “no increase in body weight from baseline”.
